# Reference: patent US8575193B2, “N-substituted tetrahydroisoquinoline/isoindoline hydroxamic acid compounds” (4SC AG, priority 2008, dated 2013)
# Where a name gives a salt, the structure may show the parent alone.
# Tests used:
# [1] = Cellular cytotoxicity assay (Alamar Blue/Resazurin), A549; assay type: cell-based; settings: human, A549 cells; A549, 72 hours incubation, Resazurin; read-out: A549 Cytotoxicity [pIC50] (converted)
# Protocol: (§1) The anti-proliferative activity of the compounds as described herein, is evaluated with various solid and hematological cancer cell lines using the Alamar Blue (Resazurin) cell viability assay (O'Brien et al, Eur J Biochem 267, 5421-5426, 2000). Resazurin is reduced to the fluorescent resorufin by cellular dehydrogenase activity, correlating with viable, proliferating cells. Test compounds are dissolved as 20 mM solutions in dimethylsulfoxide (DMSO) and subsequently diluted in semi-logarithmic steps. The cancer cell lines are seeded into 96 well flat bottom plates at respective cell densities in a volume of 200 μl per well to allow continuous proliferation during the experiment. 24 hours after seeding 1 μl each of the compound dilutions is added into each well of the 96 well plate. Wells containing untreated control cells are filled with 200 μl DMEM medium containing 0.5% v:v DMSO. The cells are then incubated with the substances for 72 hours at 37° C. in a humidified atmosphere containing 5% carbon dioxide. To determine the viability of the cells, 20 μl of a Resazurin solution (Sigma; 90 mg/l) are added. After 4 hours incubation at 37° C. the fluorescence is measured at an extinction of 544 nm and an emission of 590 nm. For the calculation of the cell viability the emission value from untreated cells is set as 100% viability and the emission rates of treated cells are set in relation to the values of untreated cells. Viabilities are expressed as % values. The corresponding pIC50 values of the compounds for cytotoxic activity are determined from the concentration-effect curves by means of non-linear regression.
# rHDAC6 = biological target: T1, rHDAC6 (Homo sapiens, UniProt Q9UBN7); experiment: rHDAC6 enzymatic assay (recombinant FLAG-HDAC6); assay type: biochemical; settings: FLAG-HDAC6 from HEK293; 10 μM Ac-NH-GGK(Ac)-AMC, 3 h at 30° C.; read-out: rHDAC6 [pIC50] (converted)
# T1 construct: FLAG; made in house
# T1 sequence (Q9UBN7 1-1215): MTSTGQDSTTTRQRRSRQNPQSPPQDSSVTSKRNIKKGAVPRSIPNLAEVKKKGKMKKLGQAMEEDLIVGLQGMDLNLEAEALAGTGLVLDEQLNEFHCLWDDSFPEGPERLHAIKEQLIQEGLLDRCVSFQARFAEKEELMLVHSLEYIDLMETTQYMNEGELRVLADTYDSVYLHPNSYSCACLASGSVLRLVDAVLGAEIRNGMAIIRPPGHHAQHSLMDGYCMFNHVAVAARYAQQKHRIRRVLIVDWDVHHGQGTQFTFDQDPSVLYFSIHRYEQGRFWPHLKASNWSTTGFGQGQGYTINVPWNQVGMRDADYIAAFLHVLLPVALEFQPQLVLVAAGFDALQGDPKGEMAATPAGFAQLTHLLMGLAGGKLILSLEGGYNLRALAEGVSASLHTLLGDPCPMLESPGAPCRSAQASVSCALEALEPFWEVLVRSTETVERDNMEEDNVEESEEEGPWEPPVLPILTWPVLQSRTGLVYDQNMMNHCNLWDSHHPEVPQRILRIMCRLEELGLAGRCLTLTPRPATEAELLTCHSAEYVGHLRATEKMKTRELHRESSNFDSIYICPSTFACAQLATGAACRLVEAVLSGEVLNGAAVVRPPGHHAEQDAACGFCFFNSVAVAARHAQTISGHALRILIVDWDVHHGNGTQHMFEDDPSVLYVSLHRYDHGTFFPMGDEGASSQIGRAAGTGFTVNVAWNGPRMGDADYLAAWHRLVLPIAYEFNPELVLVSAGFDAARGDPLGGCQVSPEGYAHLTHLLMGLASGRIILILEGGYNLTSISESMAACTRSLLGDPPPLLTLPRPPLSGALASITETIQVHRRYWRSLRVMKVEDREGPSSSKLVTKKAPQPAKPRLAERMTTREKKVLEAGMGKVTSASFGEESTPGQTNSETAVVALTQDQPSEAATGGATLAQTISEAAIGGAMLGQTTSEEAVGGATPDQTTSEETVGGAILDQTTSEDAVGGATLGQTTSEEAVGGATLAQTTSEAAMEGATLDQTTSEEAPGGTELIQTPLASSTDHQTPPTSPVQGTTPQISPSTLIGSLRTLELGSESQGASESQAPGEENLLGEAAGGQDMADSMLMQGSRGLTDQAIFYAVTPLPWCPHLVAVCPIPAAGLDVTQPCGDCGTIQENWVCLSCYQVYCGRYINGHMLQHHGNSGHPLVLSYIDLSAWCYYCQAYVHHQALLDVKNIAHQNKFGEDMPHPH
# Excerpt: (§2) Human HDAC1 and HDAC6 fused with the FLAG epitope are stably expressed in HEK293 cells while human HDAC3 and HDAC8 fused with the FLAG epitope are overexpressed in baculo-virus infected insect (Sf21) cells. To ensure stability of FLAG-HDAC3 the SMRT protein is co-expressed in the corresponding insect cells. […] FLAG-HDAC3 and FLAG-HDAC8 are also purified by M2-agarose affinity chromatography after mass cultivation of the insect cells and cell lysis.
# (§3) The HDAC enzyme activity assay is done as described by Wegener et al. (Chem. & Biol. 10, 61-68, 2003). Briefly 40 μl of a 1:100 dilution (=0.4 μl) nuclear HeLa extract (mixture of class I and II HDACs), 29 μl enzyme buffer (15 mM Tris HCl pH 8.1, 0.25 mM EDTA, 250 mM NaCl, 10% v:v glycerol) and 1 μl test compound are added to a well of a 96 well microtiter plate and reaction started by addition of 3 μl substrate (Ac-NH-GGK(Ac)-AMC; final concentration 25 μM and final volume […]). […] After incubation at room temperature for further 40 min, fluorescence is measured using a Wallac Victor 1420 multilabel counter (Ex 355 nm, Em 460 nm) for quantification of AMC (7-amino-4-methylcoumarin) generated by trypsine cleavage of the deacetylated peptide. […] The corresponding pIC50 values of the compounds for HDAC inhibitory activity are determined from the concentration-effect curves by means of non-linear regression (Graphpad Prism software).
# (§4) The HDAC1, HDAC3 and HDAC6 enzymatic assays are done with slight modifications with recombinant FLAG-HDAC1 and FLAG-HDAC6 proteins isolated from HEK293 cell lysates or recombinant FLAG-HDAC3 isolated from insect cells, respectively. The HDAC8 enzymatic assay using recombinant FLAG-HDAC8 isolated from insect cells is done with a different substrate. About 4.5 ng/well FLAG-HDAC1 and 3.1 ng/well FLAG-HDAC6 (dependent on batches and specific activity) are incubated with 6 μM or 10 μM Ac-NH-GGK(Ac)-AMC substrate, respectively, for 3 h at 30° C. About 1.7 ng/well FLAG-HDAC3 is incubated with 6 μM Ac-NH-GGK(Ac)-AMC substrate for 2 h at 30° C., while approximately 130 ng/well FLAG-HDAC8 is incubated with 50 μM Ac-RHK(Ac)K(Ac)-AMC substrate for 3 h at 30° C. Termination of the reaction and all further steps are done as described for HeLa cell nuclear extracts as a source for HDAC enzymatic activity. The corresponding pIC50 values of the compounds for HDAC1, HDAC3, HDAC6 and HDAC8 inhibitory activity are determined from the concentration-effect curves by means of non-linear regression.
# rHDAC1 = biological target: T2, rHDAC1 (Homo sapiens, UniProt Q13547); experiment: rHDAC1 enzymatic assay (recombinant FLAG-HDAC1); assay type: biochemical; settings: FLAG-HDAC1 from HEK293; 6 μM Ac-NH-GGK(Ac)-AMC, 3 h at 30° C.; read-out: rHDAC1 [pIC50] (converted)
# T2 construct: FLAG; made in house
# Excerpt: as §2, §3, §4
# rHDAC8 = biological target: T3, rHDAC8 (Homo sapiens, UniProt Q9BY41); experiment: rHDAC8 enzymatic assay (recombinant FLAG-HDAC8); assay type: biochemical; settings: FLAG-HDAC8 from insect cells; 50 μM Ac-RHK(Ac)K(Ac)-AMC, 3 h at 30° C.; read-out: rHDAC8 [pIC50] (converted)
# T3 construct: FLAG; made in house; host or cells: baculovirus-infected Sf21 insect cells
# T3 sequence (Q9BY41 1-377): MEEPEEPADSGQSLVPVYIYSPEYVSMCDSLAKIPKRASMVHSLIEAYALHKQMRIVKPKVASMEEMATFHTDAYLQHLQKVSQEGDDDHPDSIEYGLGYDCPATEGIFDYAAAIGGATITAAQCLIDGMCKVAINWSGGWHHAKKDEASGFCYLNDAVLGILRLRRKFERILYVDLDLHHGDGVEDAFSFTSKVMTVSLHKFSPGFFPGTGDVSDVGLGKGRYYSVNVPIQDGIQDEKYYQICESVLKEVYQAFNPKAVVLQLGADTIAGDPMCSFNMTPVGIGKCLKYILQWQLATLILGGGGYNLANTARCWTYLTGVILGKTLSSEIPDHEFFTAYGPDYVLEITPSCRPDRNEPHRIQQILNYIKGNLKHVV
# Excerpt: as §2, §3, §4
# [2] = Cellular cytotoxicity assay (Alamar Blue/Resazurin), HeLa; assay type: cell-based; settings: human, HeLa cells, 72 hours incubation, Resazurin, read-out: HeLa Cytotoxicity [pIC50] (converted)
# Protocol: as §1
# rHDAC3 = biological target: T4, rHDAC3 (Homo sapiens, UniProt O15379); experiment: rHDAC3 enzymatic assay (recombinant FLAG-HDAC3); assay type: biochemical; settings: FLAG-HDAC3 from insect cells; 6 μM Ac-NH-GGK(Ac)-AMC, 2 h at 30° C.; read-out: rHDAC3 [pIC50] (converted)
# T4 construct: FLAG; made in house; host or cells: baculovirus-infected Sf21 insect cells
# Excerpt: as §2, §3, §4
# T4 sequence (O15379 whole entry): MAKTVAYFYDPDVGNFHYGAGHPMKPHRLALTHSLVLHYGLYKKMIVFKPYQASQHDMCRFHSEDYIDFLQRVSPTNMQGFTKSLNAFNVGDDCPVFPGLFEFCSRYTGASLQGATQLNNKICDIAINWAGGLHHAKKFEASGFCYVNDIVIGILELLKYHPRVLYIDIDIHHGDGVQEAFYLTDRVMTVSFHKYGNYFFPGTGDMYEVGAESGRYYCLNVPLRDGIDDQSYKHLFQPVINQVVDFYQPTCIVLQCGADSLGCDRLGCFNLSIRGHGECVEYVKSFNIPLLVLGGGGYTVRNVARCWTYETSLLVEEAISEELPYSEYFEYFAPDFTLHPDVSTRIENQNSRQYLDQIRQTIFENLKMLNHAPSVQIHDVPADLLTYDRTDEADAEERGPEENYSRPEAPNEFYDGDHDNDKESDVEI
# T4 sequence (Q9Y618 whole entry partner): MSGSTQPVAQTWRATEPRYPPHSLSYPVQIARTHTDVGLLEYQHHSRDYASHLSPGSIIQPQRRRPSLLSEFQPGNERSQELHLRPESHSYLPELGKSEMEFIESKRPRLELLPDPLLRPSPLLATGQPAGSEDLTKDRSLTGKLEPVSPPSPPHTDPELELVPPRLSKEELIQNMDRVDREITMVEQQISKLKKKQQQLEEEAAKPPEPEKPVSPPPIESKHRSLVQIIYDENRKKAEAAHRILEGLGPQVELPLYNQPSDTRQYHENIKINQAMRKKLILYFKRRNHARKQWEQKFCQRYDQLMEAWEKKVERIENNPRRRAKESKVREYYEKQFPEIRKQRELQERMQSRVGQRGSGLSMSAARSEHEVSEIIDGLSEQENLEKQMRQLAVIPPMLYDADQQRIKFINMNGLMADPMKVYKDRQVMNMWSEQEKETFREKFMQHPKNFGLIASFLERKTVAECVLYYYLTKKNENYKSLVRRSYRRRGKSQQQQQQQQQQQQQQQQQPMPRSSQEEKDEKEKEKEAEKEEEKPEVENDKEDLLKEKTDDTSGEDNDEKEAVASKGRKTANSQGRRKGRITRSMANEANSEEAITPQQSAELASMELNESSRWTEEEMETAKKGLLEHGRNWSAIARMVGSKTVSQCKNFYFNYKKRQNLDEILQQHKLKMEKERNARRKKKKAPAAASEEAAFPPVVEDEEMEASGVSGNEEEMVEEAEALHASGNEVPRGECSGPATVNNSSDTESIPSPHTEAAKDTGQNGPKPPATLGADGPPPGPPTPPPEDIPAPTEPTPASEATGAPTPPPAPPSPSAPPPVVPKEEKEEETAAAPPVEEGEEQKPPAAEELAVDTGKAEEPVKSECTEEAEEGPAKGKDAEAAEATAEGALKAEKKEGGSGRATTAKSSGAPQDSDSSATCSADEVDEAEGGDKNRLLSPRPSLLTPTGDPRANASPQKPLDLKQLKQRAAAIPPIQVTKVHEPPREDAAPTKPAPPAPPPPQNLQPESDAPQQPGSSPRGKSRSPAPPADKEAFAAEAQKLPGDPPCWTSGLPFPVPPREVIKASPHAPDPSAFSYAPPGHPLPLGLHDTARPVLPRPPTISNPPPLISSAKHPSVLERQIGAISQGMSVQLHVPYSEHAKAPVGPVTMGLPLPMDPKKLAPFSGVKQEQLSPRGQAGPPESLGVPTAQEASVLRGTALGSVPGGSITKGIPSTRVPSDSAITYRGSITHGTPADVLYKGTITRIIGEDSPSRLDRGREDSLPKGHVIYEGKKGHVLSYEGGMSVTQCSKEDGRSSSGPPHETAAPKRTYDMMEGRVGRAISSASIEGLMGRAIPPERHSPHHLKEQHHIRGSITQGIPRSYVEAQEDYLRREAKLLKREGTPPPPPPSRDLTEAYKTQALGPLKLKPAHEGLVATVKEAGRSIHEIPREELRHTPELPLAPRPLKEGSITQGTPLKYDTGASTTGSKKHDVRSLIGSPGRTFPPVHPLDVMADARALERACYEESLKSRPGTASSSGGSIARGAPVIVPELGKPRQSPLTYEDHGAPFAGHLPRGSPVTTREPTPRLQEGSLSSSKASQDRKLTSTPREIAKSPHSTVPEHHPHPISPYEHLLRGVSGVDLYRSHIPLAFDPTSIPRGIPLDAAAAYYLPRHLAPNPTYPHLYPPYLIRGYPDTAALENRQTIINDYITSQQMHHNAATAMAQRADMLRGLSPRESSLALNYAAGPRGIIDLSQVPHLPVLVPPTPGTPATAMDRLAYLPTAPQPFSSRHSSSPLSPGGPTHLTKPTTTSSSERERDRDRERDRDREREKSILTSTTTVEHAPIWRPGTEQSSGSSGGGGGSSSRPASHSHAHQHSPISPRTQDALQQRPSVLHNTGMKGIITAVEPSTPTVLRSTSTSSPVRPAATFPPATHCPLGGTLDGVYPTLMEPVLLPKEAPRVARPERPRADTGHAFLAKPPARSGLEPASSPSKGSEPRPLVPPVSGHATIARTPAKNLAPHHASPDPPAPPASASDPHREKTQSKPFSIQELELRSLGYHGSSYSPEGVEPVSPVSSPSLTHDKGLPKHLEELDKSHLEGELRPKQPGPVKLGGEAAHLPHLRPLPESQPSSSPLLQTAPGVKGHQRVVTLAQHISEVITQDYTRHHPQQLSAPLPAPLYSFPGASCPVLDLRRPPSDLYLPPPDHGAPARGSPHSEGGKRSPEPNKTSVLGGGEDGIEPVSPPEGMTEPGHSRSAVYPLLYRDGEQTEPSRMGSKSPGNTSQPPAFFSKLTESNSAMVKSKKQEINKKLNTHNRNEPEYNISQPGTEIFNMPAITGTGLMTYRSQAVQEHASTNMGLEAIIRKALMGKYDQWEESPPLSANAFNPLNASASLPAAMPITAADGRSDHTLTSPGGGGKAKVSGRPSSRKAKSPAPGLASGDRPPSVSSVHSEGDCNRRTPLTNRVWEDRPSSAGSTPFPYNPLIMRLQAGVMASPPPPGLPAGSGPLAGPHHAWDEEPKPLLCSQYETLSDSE
# T2 sequence (Q13547 whole entry): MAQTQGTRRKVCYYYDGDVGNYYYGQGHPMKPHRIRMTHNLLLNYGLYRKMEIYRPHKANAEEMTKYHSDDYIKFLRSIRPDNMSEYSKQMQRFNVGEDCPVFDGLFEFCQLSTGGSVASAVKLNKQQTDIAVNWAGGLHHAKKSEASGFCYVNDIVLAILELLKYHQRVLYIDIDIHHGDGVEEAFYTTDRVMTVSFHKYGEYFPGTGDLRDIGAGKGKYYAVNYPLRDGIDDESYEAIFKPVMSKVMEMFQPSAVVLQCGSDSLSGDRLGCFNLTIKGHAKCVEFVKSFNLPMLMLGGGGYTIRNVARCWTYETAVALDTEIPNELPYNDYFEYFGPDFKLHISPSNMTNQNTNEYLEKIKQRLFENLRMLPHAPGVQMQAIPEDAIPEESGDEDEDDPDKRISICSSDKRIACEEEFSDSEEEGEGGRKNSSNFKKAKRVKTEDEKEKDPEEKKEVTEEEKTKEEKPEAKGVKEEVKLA
compound,measurement,setting,value
"O=C(NO)c1ccc2c(c1)CN(C(=O)c1ccc3ccccc3n1)C2 [Example 27, N-Hydroxy-2-(quinolin-2-ylcarbonyl)isoindoline-5-carboxamide]",melting point,,162 to 166 °C
"O=C(NO)c1ccc2c(c1)CCN(C(=O)Cc1ccccn1)C2 [Example 2, N-Hydroxy-2-(pyridin-2-ylacetyl)-1,2,3,4-tetrahydroisoquinoline-6-carboxamide hydrochloride]",IC50 at 72 h,[1],> 100 µM
same,IC50,rHDAC6,0.001 to 0.1 µM
same,IC50,rHDAC1,10 to 100 µM
Cc1nccn1CCC(=O)N1CCc2ccc(C(=O)NO)cc2C1.Cl,melting point,,63 °C
"O=C(NO)c1ccc2c(c1)CN(C(=O)c1ccc3ncccc3c1)C2 [Example 28, N-Hydroxy-2-(quinolin-6-ylcarbonyl)isoindoline-5-carboxamide]",melting point,,208 to 210 °C
"O=C(NO)c1ccc2c(c1)CCN(C(=O)Cc1ccccn1)C2 [Example 14, N-Hydroxy-2-(pyridin-2-ylacetyl)-1,2,3,4-tetrahydroisoquinoline-6-carboxamide hydrochloride]",IC50,rHDAC8,1 to 10 µM
same,IC50 at 72 h,[2],1 to 100 µM
same,IC50,rHDAC3,10 to 100 µM
"O=C(NO)c1ccc2c(c1)CN(C(=O)c1cc3ccccc3cn1)C2 [Example 29, N-Hydroxy-2-(isoquinolin-3-ylcarbonyl)isoindoline-5-carboxamide]",melting point,,208 to 210 °C
"CC(=O)N1CCc2ccc(C(=O)NO)cc2C1 [Example 25, 2-Acetyl-N-hydroxy-1,2,3,4-tetrahydroisoquinoline-7-carboxamide]",melting point,,177 to 181 °C
